Among the data in patent US10457675B2, “Histone deacetylase inhibitors and compositions and methods of use thereof” (CHDI Foundation, Inc., priority 2014, dated 2019) are IC50 values, retold here.

The test system of assay [1] is cellular HDAC activity (Lys-Ac). The experiment in a line: Cell (Lys-Ac): cellular HDAC activity. In kind it is cell-based.
Assay [2] addresses Histone Deacetylase 4 (HDAC4) catalytic domain (Homo sapiens (Human), UniProt P56524). The assay is described as follows: Biochemical IC50: HDAC enzymatic activity with fluorogenic substrate Boc-Lys(Tfa)-AMC. How it is done:
The potency of compounds is quantified by measuring the Histone Deacetylase 4 (HDAC4) catalytic domain enzymatic activity using the fluorogenic substrate, Boc-Lys(Tfa)-AMC. The substrate is deacetylated to Boc-Lys-AMC by HDAC4. Cleavage by trypsin results in the release of the fluorophore AMC from the deacetylated substrate. The fluorescence of the sample is directly related to the histone deacetylase activity in the sample.
Stocks of 60 μL aliquots of the 10 mM compound in DMSO are prepared and stored at −20° C. From one stock aliquot of each compound to be tested and the reference compound, a 16-point serial dilution is prepared according to Table 1 using a 125 μL 16-channel Matrix multi-channel pipette (Matrix Technologies Ltd).
2 μL (200×) of each diluted solution and each control (full activity: 100% DMSO alone or full inhibition 1 mM) is stamped into V-bottomed polypropylene 384-well compound plates using either the Bravo (384-well head from Agilent) or 12.5 μL 16-channel Matrix multi-channel pipette (Matrix Technologies Ltd). […]
5 μL of each solution of 1:20 diluted compound from above is transferred to a clear bottomed, black, 384-well assay plate using the Bravo or the Janus (384-well MDT head from Perkin Elmer). […] Finally, the fluorescence is measured (Excitation: 355 nm, Emission: 460 nm) using PerkinElmer EnVision in top read mode.

Assay [3] concerns cellular histone deacetylase enzymatic activity in Jurkat E6-1 cells. The experiment in a line: Cell (Lys-TFA): cellular HDAC activity in Jurkat E6-1 cells with Boc-Lys(Tfa)-AMC. The assay is classed as cell-based. The note with it: Boc-Lys(Tfa)-AMC substrate. How it is done:
The potency of the compounds is quantified by measuring the cellular histone deacetylase enzymatic activity using the fluorogenic substrate, Boc-Lys(Tfa)-AMC. After penetration in Jurkat E6-1 cells, the substrate is deacetylated to Boc-Lys-AMC. After cell lysis and cleavage by trypsin, the fluorophore AMC is released from the deacetylated substrate only. The fluorescence of the sample is directly related to the histone deacetylase activity in the sample.
Jurkat E6.1 cells are cultured according to standard cell culture protocols in Jurkat E6.1 Growth Media (RPMI without phenol red, 10% FBS, 10 mM HEPES, and 1 mM Sodium Pyruvate). Jurkat E6.1 cells are counted using a Coulter Counter and resuspended in Jurkat E6.1 growth media at a concentration of 75,000 cells/35 μL. 35 μL or 75,000 cells is seeded into Greiner microtitre assay plates. The plates are then incubated at 37° C. and 5% CO2 while other assay components are being prepared.
Stocks of 70 μL aliquots of the 10 mM compound in DMSO are prepared and stored at −20° C. […]
5 μL of each solution of 1:20 diluted compound from above is transferred to the Greiner microtitre assay plates with 75,000 cells/well using the Bravo. […] Finally the top read fluorescence (Excitation: 355 nm, Emission: 460 nm) is measured using PerkinElmer EnVision.

Histone Deacetylase 4 (HDAC4) catalytic domain, sequence (P56524 648-1032): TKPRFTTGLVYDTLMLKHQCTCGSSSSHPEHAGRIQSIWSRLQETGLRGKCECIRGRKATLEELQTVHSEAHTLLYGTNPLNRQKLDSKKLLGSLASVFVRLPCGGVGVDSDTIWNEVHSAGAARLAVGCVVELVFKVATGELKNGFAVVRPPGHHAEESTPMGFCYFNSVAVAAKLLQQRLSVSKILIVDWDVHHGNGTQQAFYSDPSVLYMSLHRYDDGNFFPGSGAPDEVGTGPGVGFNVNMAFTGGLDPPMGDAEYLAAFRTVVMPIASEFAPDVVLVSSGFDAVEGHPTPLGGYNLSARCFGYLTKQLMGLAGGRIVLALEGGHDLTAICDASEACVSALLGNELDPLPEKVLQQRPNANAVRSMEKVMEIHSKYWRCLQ

Regarding “5-(3-Fluoro-2-methylphenyl)-1-(4-fluorobenzyl)-N-hydroxy-4,5,6,7-tetrahydro-1H-indazole-5-carboxamide and 5-(3-fluoro-2-methylphenyl)-2-(4-fluorobenzyl)-N-hydroxy-4,5,6,7-tetrahydro-2H-indazole-5-carboxamide [Example 36]”, the figures for the IC50 in assay [1], in assay [2] and in assay [3] were above 50000 nM, 600 nM and 370 nM, respectively.

In the case of “5-(3-Fluoro-2-methylphenyl)-N-hydroxy-1-(2,2,2-trifluoroethyl)-4,5,6,7-tetrahydro-1H-indazole-5-carboxamide and 5-(3-fluoro-2-methylphenyl)-N-hydroxy-2-(2,2,2-trifluoroethyl)-4,5,6,7-tetrahydro-2H-indazole-5-carboxamide [Example 35]”, the figures for the IC50 in assay [1] and in assay [3] were above 50000 nM and 770 nM, respectively.

As to `Cc1c(F)cccc1C1(C(=O)NO)CCc2nc(C3CC3)ncc21` (stereo in doubt) [Example 57, (R)-2-Cyclopropyl-5-(3-fluoro-2-methylphenyl)-N-hydroxy-6,7-dihydro-5H-cyclopenta[d]pyrimidine-5-carboxamide], the IC50 – broadly, the point on the concentration scale where inhibition reaches its midpoint – in assay [1] was above 50000 nM.
